From patent EP0548790A1, “(1'S)-Hydroxyalkyloxapenem-3-carboxylic acids and their use as beta-lactamase inhibitors” (ELI LILLY AND COMPANY, priority 1991, dated 1993)

How the values were obtained:
[1] = test system: Penicillin resistenten Staph. aureus; details: comparison with Clavulansäure; from earlier filing EP 89117433.6; cited from earlier work
E. coli TEM 1 = assay: agar diffusion test, inhibition zone diameter (Hemmhof), inhibitor alone and combined with Cefaclor; type: cell-based, E. coli W 311O3 R6K (TEM 1); details: for zone of inhibition at 10 µg/disc: Escherichia coli, TEM1, read-out: Hemmhofdurchmesser mm (E. coli TEM 1) I (10 mcg); for Hemmhofzuwachs, d.h. die Schutzwirkung: increase of zone with Cefaclor versus alone; for Eigenwirkung als Antibiotika: inhibitor alone; for Wirkung als Betalactamasehemmer gegen E. coli TEM 1: protection of Cefaclor against the bacterial enzyme
Text: "like" bedeutet gleiche absolute Konfiguration zweier benachbarter Chiralitätszentren. Als Testkeim wurde ein besonders starker Betalactamase-Bildner verwendet. E. coli W 311O3 R6K (TEM 1) wurde deshalb mehrfach in einer Kulturlösung mit 2O mcg/ml Cefaclor bebrütet. Cefaclor allein (3O mcg) ergab einen Hemmhof von 16 mm, mit 1O mcg Clavulansäure kombiniert einen solchen von 22 mm Durchmesser.

Pseudomonas aeruginosa = details: comparison with Clavulansäure; from earlier filing EP 89117433.6; cited from earlier work
[2] = biological target: T1, Cephalosporinasen aus Enterobacter cloacae (Enterobacter cloacae, UniProt P05364); details: reported in Amer. J. Med. 79 (suppl. 5B), 194 (1985); cited from earlier work
T1 construct: dagegen ist auch gegen diese Keime als Betalactamasehemmer wirksam; endogenous in cells
T1 sequence (P05364 21-381): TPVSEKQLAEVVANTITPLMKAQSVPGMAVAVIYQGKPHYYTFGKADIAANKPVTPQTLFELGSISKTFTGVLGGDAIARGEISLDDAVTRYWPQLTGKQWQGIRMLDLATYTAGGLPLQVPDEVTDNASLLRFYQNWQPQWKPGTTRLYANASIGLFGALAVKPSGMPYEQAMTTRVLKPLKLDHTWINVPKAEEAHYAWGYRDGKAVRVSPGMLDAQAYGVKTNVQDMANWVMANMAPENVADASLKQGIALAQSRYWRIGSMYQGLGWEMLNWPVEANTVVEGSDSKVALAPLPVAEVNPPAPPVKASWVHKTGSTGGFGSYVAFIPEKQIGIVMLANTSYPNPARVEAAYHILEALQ

[3] = biological target: T2, Cephalosporinasen aus Pseudomonas aeruginosa (Pseudomonas aeruginosa, UniProt P24735); details: reported in Amer. J. Med. 79 (suppl. 5B), 194 (1985); cited from earlier work
T2 construct: dagegen ist auch gegen diese Keime als Betalactamasehemmer wirksam; endogenous in cells
T2 sequence (P24735 27-397): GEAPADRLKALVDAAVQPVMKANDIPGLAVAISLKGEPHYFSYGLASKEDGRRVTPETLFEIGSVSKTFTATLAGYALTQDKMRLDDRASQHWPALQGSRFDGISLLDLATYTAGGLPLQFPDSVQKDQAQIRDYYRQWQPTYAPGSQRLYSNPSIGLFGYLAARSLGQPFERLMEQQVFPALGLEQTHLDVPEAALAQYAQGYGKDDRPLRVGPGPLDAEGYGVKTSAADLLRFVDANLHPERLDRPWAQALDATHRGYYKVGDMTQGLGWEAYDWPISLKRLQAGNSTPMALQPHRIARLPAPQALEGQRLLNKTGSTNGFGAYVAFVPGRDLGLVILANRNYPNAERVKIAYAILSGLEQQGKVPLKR

[4] = biological target: T2, Cephalosporinasen aus Pseudomonas aeruginosa; assay: beta-lactamase inhibitor activity against cephalosporinase producer; details: requires partner antibiotic able to enter the bacterium
E. cloacae = assay: inhibition zone diameter, third-generation cephalosporin combined with inhibitor; type: cell-based
Text: Die erfindungsgemässen Verbindungen sind in der Lage, schon in geringen Konzentrationen die Hemmwirkung aller untersuchter Penicilline wie z. B. Amoxycillin, Piperacillin, Mezlocillin oder Cephalosporine wie z. B. Cefaclor, Cefoperazon gegen Betalactamase-bildende Bakterien zu verstärken. Auch gemeinhin als Betalactamase-stabile geltende Cephalosporine der dritten Generation wie z. B. Cefotaxim oder Ceftriaxon (je 3O mcg) ergaben in der Kombination mit Ie (1O mcg) erstmals deutliche Hemmhöfe vom Durchmesser 27 bzw. 26 mm gegen E. cloacae. Die erfindungsgemässen Verbindungen sind stark wirksam gegen Penicillinasen und Cephalosporinasen.

[5] = biological target: T1, Cephalosporinasen aus Enterobacter cloacae; assay: beta-lactamase inhibitor activity against cephalosporinase producer; details: requires partner antibiotic able to enter the bacterium

CC(C)(C)C1=C(C(=O)O)N2C(=O)[C@H](CO)[C@H]2O1 (racemic) [Ia, 2-tert-Butyl-6-hydroxymethyloxapenem-3-carbonsäure (K-Salz)]
Wirksamkeit in der Kombination mit Mezlocillin [1]: wirksamer als Clavulansäure
zone of inhibition at 10 µg/disc (E. coli TEM 1): 17 mm
Hemmhofzuwachs, d.h. die Schutzwirkung (E. coli TEM 1): vergleichsweise gering
Eigenwirkung als Antibiotika (E. coli TEM 1): gute Eigenwirkung
Wirksamkeit in der Kombination mit Mezlocillin (Pseudomonas aeruginosa): wirksamer als Clavulansäure

C[C@H](O)[C@H]1C(=O)N2C(C(=O)O)=C(C(C)(C)C)O[C@H]12 (racemic) [Ib, racemischer trans-2-tert-Butyl-6-(unlike-hydroxyethyl)oxapenem-3-carbonsäure]
zone of inhibition at 10 µg/disc (E. coli TEM 1): 0 mm
Wirkung als Betalactamasehemmer gegen E. coli TEM 1 (E. coli TEM 1): besonders gute Wirkung

C[C@H](O)[C@H]1C(=O)N2C(C(=O)O)=C(C(C)(C)C)O[C@@H]12 (racemic) [Ic, racemischer cis-2-tert-Butyl-6-(unlike-hydroxyethyl)oxapenem-3-carbonsäure]
zone of inhibition at 10 µg/disc (E. coli TEM 1): 9 mm

N[C@@H](C(=O)N[C@@H]1C(=O)N2C(C(=O)O)=C(Cl)CS[C@H]12)c1ccccc1 [Cefaclor, reference compound]
Hemmhof (E. coli TEM 1; Cefaclor allein (3O mcg)): 16 mm

O=C(O)[C@H]1/C(=C/CO)O[C@@H]2CC(=O)N21 [Clavulansäure]
Wirkung gegen Cephalosporinasen [2]: nicht
Hemmhof Durchmesser (E. coli TEM 1; Cefaclor 3O mcg combined with 1O mcg Clavulansäure): 22 mm
Wirkung gegen Cephalosporinasen [3]: nicht

C[C@@H](O)[C@H]1C(=O)N2C(C(=O)O)=C(C(C)(C)C)O[C@H]12 [Id]
zone of inhibition at 10 µg/disc (E. coli TEM 1): 23 mm
Hemmhofzuwachs, d.h. die Schutzwirkung (E. coli TEM 1): vergleichsweise gering
Eigenwirkung als Antibiotika (E. coli TEM 1): gute Eigenwirkung

C[C@H](O)[C@H]1C(=O)N2C(C(=O)O)=C(C(C)(C)C)O[C@H]12 [Ie, (5R,6R)-2-tert-Butyl-((1S)-hydroxyethyl)oxapenem-3-carbonsäure (K-Salz)]
Wirkung als Betalactamasehemmer [4]: wirksam
zone of inhibition at 10 µg/disc (E. coli TEM 1): 0 mm
Wirkung als Betalactamasehemmer gegen E. coli TEM 1 (E. coli TEM 1): besonders gute Wirkung
Hemmhöfe vom Durchmesser (E. cloacae; Cefotaxim 3O mcg combined with Ie 1O mcg): 27 mm
Hemmhöfe vom Durchmesser (E. cloacae; Ceftriaxon 3O mcg combined with Ie 1O mcg): 26 mm
Wirkung als Betalactamasehemmer [5]: wirksam
